Twelve compounds from ChEMBL document CHEMBL1201862, “PubChem BioAssay data set” (2004) can be followed below.

Holding throughout (assay): NCI tumour cell line growth inhibition, 48 h
Assay [1] concerns EKVX.
Assay [2] deals with SK-MEL-2.
In assay [3] the test system is SNB-75.
For assay [4], the system named is HOP-92.
In assay [5] the test system is NCI-H226.
Assay [6] concerns OVCAR-3.
Assay [7] relates to M14.
Assay [8] deals with SK-MEL-5.
Assay [9] relates to UACC-62.
Assay [10] concerns KM12.
Assay [11] relates to RXF 393.
The test system of assay [12] is MOLT-4.
For assay [13], the system named is SNB-19.
Assay [14] concerns NCI-H460.
The test system of assay [15] is SR.
The subject of assay [16] is A549.
Assay [17] deals with NCI/ADR-RES.
The subject of assay [18] is MCF7.
Assay [19] deals with MDA-MB-435.

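Cells were grown in 96-well plates and exposed to each compound for 48 hours at five concentrations; endpoints were interpolated linearly between bracketing concentrations, or set to the highest concentration if not reached. GI50 marks 50% less growth.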 The source made the active and inactive calls. No stated cut-off is given here; in the data, active = GI50 up to about 1.1 µM and inactive = higher.

On to `C[C@]12CC[C@H](O)CC1=CC[C@@H]1C2CC[C@]2(C)C(=O)NC(=O)CC12` (some centres not stated), for which the GI50 in assay [1] is > 100 µM (inactive); in [2], 64.7 µM (inactive); in [3], > 100 µM (inactive); in assay [4], > 100 µM (inactive); in [5], > 100 µM (inactive); in [6] it was > 100 µM (inactive). Besides, the GI50 in assay [7] was > 100 µM (inactive); in assay [8], > 100 µM (inactive); in assay [9], > 100 µM (inactive); in [10], 35.5 µM (inactive); in assay [11], > 100 µM (inactive); in [12], 30.6 µM (inactive). The GI50 is > 100 µM (inactive) in assay [13], 48.6 µM (inactive) in assay [14], 37.2 µM (inactive) in assay [15] and > 100 µM (inactive) in assay [16].
Regarding `Cc1cccc2c1c1ccc3c(c1n2C)C(=O)C=CC3=O`, the GI50 in assay [1] was 18.9 µM (inactive); in assay [2], 15.6 µM (inactive); in [3] it was 19.5 µM (inactive); in assay [4] it was 2.08 µM (inactive); in assay [5] it was 17.3 µM (inactive); in [6], 2.05 µM (inactive). The GI50 in assay [7] was 6.22 µM (inactive); in assay [8], 14.8 µM (inactive); in assay [9] it was 13.2 µM (inactive); in [10], 13.2 µM (inactive); in assay [11], 3.48 µM (inactive); in assay [12] it was 0.536 µM (active). Also, the GI50 in assay [13] was 16.7 µM (inactive); in assay [14], 17.3 µM (inactive); in assay [15] it was 1.43 µM (inactive); in [16], 18.9 µM (inactive).
On to `Cc1ccc(/C=N\NC2c3cc(Cl)ccc3Nc3nc(O)nc(C)c32)cc1` (configuration not stated), for which the GI50 in assay [1] is > 100 µM (inactive); in [2], > 100 µM (inactive); in assay [3], > 100 µM (inactive); in assay [4], 43.3 µM (inactive); in assay [5], > 100 µM (inactive); in assay [6], > 100 µM (inactive). Moreover, the GI50 in [7] was 57.1 µM (inactive); in assay [9], > 100 µM (inactive); in [10], > 100 µM (inactive); in assay [11], > 100 µM (inactive); in assay [12] it was 4.92 µM (inactive); in assay [13], > 100 µM (inactive). Also, the GI50 in assay [14] was > 100 µM (inactive); in assay [15], 7.29 µM (inactive); in assay [16], > 100 µM (inactive).
For `C=C(c1ccccc1)[C@@]1(O)CCCC[C@H]1NC(c1ccccc1)c1ccccc1`, the GI50 in assay [1] was 15.3 µM (inactive); in assay [2], 13.3 µM (inactive); in assay [3] it was 28.2 µM (inactive); in [4] it was 12.6 µM (inactive); in [5], 6.97 µM (inactive); in assay [6], 12.1 µM (inactive). Also, the GI50 is 14 µM (inactive) in assay [7]; 9.51 µM (inactive) in assay [8]; 13.1 µM (inactive) in assay [9]; 11.1 µM (inactive) in assay [10]; 7.89 µM (inactive) in [11]; 2.73 µM (inactive) in [12]. Also, the GI50 in [13] is 15.7 µM (inactive); in assay [14], 13 µM (inactive); in assay [15], 1.7 µM (inactive); in assay [16], 11.8 µM (inactive).
As to `CC(=O)OCc1c2ccccc2c(C)c2c1cc(F)c1ccccc12`, the GI50 in assay [1] was 34.4 µM (inactive); in [2], 15.2 µM (inactive); in [3], 22.9 µM (inactive); in [4], 40.6 µM (inactive); in [5], 25.9 µM (inactive); in [6], 22.9 µM (inactive). For the same compound, the GI50 in assay [7] is 34 µM (inactive); in assay [8], 25.5 µM (inactive); in [9] it was 20.7 µM (inactive); in assay [10], > 100 µM (inactive); in [11], 25.6 µM (inactive); in [12], 7.74 µM (inactive). For the same compound, the GI50 is 28.9 µM (inactive) in assay [13], 12.6 µM (inactive) in assay [15] and 32.4 µM (inactive) in assay [16].
Take `CCOC(=O)CCC(=O)C1c2cccc(O)c2C(=O)c2c(O)cc(C)cc21` (configuration not stated): the GI50 in assay [1] is 1.82 µM (inactive); in [2] it was 0.344 µM (active); in [3], 0.578 µM (active); in [4] it was 1.46 µM (inactive); in assay [5], 0.719 µM (active); in assay [6], 0.533 µM (active). Also, the GI50 in assay [7] was 1.4 µM (inactive); in [8] it was 0.676 µM (active); in assay [9], 0.434 µM (active); in assay [10], 0.245 µM (active); in assay [11], 0.391 µM (active); in assay [12] it was 2.1 µM (inactive). Moreover, the GI50 in assay [13] is 0.327 µM (active); in [14], 0.342 µM (active); in assay [15], 0.743 µM (active); in assay [16], 0.695 µM (active).
For the compound `COc1cccc2c1NC(=O)Cc1c-2[nH]c2ccccc12`, the GI50 in assay [1], in assay [2], in assay [3], in [4], in assay [5] and in assay [6] was > 100 µM (inactive) throughout. For the same compound, the GI50 in [7] is > 100 µM (inactive); in [17] it was 82.2 µM (inactive); in assay [8], 41.9 µM (inactive); in [9] it was > 100 µM (inactive); in assay [10], 46.9 µM (inactive); in [11], > 100 µM (inactive). Moreover, the GI50 in assay [12] is 13.6 µM (inactive); in assay [14] it was 35.1 µM (inactive); in assay [15] it was > 100 µM (inactive); in assay [16] it was > 100 µM (inactive); in assay [18], 88.5 µM (inactive); in assay [19] it was 29.1 µM (inactive).
Consider `CCOC(=O)COc1ccccc1/C=C1\CCC(CN(C)C)C1=O` (configuration not stated), for which the GI50 in assay [1] was 13.8 µM (inactive); in assay [2] it was 10.6 µM (inactive); in [3], 15.9 µM (inactive); in assay [4], 10.9 µM (inactive); in assay [5], 17.5 µM (inactive); in assay [6], 7.82 µM (inactive). For the same compound, the GI50 in assay [7] was 8.71 µM (inactive); in assay [17], 3.48 µM (inactive); in assay [8] it was 10.4 µM (inactive); in assay [9] it was 6.05 µM (inactive); in [10] it was 3.71 µM (inactive); in assay [11], 2.93 µM (inactive). Also, the GI50 in [12] was 2.11 µM (inactive); in [13], 9.2 µM (inactive); in [14], 10.8 µM (inactive); in [16], 21.5 µM (inactive); in assay [18], 2.57 µM (inactive).
On to `O=C1c2cc3c(cc2CC12Cc1cc4c(cc1C2=O)CCC4)CCC3`, for which the GI50 in assay [1] is > 100 µM (inactive); in assay [2] it was > 100 µM (inactive); in assay [3], > 100 µM (inactive); in assay [5], > 100 µM (inactive); in assay [6] it was > 100 µM (inactive); in assay [7], 14.4 µM (inactive). Further, the GI50 in assay [17] is > 100 µM (inactive); in assay [8], > 100 µM (inactive); in assay [9], > 100 µM (inactive); in assay [10], > 100 µM (inactive); in assay [11], 21.8 µM (inactive); in assay [12] it was > 100 µM (inactive). Moreover, the GI50 in [13], in assay [14], in [15], in [16], in assay [18] and in [19] was > 100 µM (inactive) each time.
Turning to `O=C1OC(Cc2ccccc2)(N2CCCC2=O)C1c1ccccc1` (configuration not stated), the GI50 in [1] is 48.6 µM (inactive); in assay [2], > 100 µM (inactive); in assay [3], 30.8 µM (inactive); in assay [4] it was 62.8 µM (inactive); in assay [5], > 100 µM (inactive); in assay [6], > 100 µM (inactive). For the same compound, the GI50 was > 100 µM (inactive) in [7]; 51.5 µM (inactive) in assay [8]; 60 µM (inactive) in assay [9]; 74.8 µM (inactive) in assay [10]; 43.6 µM (inactive) in assay [12]; 47.2 µM (inactive) in assay [13]. Also, the figures for the GI50 in [14], in assay [15] and in [16] were > 100 µM (inactive), 56.4 µM (inactive) and 95.7 µM (inactive), respectively.
`COC(=O)C1(C)CC2C(C)(CCC3(C)C4=CC=C5C(=CC(=O)C(O)=C5C)C4(C)CCC23C)CC1O` (configuration not stated): the GI50 is 1.3 µM (inactive) in assay [1]; 1.68 µM (inactive) in assay [2]; 1.92 µM (inactive) in assay [3]; 0.635 µM (active) in assay [4]; 2.12 µM (inactive) in assay [5]; 0.774 µM (active) in assay [6]. Also, the GI50 in assay [7] was 1.26 µM (inactive); in assay [17], 1.06 µM (active); in [8] it was 1.66 µM (inactive); in assay [9], 0.962 µM (active); in [10], 1.57 µM (inactive); in [11], 0.429 µM (active). The GI50 in [12] is 0.285 µM (active); in assay [13], 1.59 µM (inactive); in [14] it was 1.79 µM (inactive); in assay [15] it was 0.203 µM (active); in assay [16] it was 2.29 µM (inactive); in assay [18], 1.6 µM (inactive). Moreover, the GI50 in assay [19] is 0.942 µM (active).
Take `CC(CC[C@@H](C)C1CCC2[C@@H]3CC(O)C4CC(O)[C@@H](O)C[C@]4(C)C3CC[C@@]21C)C(C)(C)C` (some centres not stated): the GI50 in [1], in assay [2], in assay [3], in [4], in [5] and in [6] was > 100 µM (inactive) throughout. In addition, the GI50 in assay [7], in [8], in assay [9], in assay [10], in assay [11] and in assay [12] was > 100 µM (inactive) each time. Also, the GI50 in assay [13], in assay [14], in [15] and in assay [16] was > 100 µM (inactive) throughout.
